Assay results as given in the supplement of paper PMC12463676, “Small-molecule dissolution of stress granules by redox modulation benefits ALS models” (Nature Chemical Biology, 2025).

Assays:
lipoamide = compound: NC(=O)CCCCC1CCSS1 [lipoamide]; experiment: thermal stability z-score vs DMSO; higher = more thermally stabilized by treatment; conditions: HeLa, lipoamide concentration 100 µM
Protocol: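 Cellular thermal proteome profiling in HeLa cells. Cells were treated with 100 µM lipoamide for 1 h, with or without 1 mM arsenate for a further 1 h, then heated to ten temperatures (37-66.3 °C), and soluble protein was quantified by TMT mass spectrometry relative to 0.1% DMSO controls. The thermal stability score (sum of log2 fold changes minus the abundance score) was transformed to a z-score; mean of n = 3 experiments.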

potassium arsenate = compound: O=[As]([O-])(O)O.[K+] [potassium arsenate]; experiment: as above; conditions: HeLa; arsenate concentration 1 mM
Protocol: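 Cellular thermal proteome profiling in HeLa cells treated with 1 mM arsenate for 1 h (DMSO pretreatment), heated to ten temperatures (37-66.3 °C). Soluble protein was quantified by TMT mass spectrometry relative to DMSO controls; the thermal stability score was transformed to a z-score; mean of n = 3 experiments.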

[1] = arsenate co-treatment: 1 mM arsenate 1 h
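Note: each temperature applied for 3 min, abundance score taken as mean log2 fold change at the two lowest temperatures, z-score obtained by mean subtraction and division by SD.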

Chain of UniProt P53680 (P53680 whole entry): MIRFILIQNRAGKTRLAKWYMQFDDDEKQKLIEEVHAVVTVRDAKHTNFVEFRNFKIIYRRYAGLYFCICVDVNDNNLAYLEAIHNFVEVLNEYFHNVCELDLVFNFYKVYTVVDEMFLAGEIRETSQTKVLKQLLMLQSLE
Chain of UniProt P28347 (P28347 whole entry): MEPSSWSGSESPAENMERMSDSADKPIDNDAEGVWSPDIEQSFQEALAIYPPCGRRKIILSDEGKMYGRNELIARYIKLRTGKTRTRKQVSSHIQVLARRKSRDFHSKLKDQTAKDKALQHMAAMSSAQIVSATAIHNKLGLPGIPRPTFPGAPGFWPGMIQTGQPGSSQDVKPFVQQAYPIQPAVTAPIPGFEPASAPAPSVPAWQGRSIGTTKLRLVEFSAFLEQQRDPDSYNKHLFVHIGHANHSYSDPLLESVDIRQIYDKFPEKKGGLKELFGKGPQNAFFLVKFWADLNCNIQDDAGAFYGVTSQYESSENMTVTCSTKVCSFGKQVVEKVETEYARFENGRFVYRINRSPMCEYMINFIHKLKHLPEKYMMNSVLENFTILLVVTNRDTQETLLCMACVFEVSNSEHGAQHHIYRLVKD
Chain of UniProt Q9P031 (Q9P031 whole entry): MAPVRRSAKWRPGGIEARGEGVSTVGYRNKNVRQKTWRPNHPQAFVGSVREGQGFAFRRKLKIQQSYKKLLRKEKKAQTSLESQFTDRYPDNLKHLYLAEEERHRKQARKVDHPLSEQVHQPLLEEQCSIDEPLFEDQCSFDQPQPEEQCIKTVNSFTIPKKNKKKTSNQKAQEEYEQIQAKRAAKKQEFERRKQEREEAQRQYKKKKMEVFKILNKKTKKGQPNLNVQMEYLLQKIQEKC
Chain of UniProt Q9UH65 (Q9UH65 whole entry): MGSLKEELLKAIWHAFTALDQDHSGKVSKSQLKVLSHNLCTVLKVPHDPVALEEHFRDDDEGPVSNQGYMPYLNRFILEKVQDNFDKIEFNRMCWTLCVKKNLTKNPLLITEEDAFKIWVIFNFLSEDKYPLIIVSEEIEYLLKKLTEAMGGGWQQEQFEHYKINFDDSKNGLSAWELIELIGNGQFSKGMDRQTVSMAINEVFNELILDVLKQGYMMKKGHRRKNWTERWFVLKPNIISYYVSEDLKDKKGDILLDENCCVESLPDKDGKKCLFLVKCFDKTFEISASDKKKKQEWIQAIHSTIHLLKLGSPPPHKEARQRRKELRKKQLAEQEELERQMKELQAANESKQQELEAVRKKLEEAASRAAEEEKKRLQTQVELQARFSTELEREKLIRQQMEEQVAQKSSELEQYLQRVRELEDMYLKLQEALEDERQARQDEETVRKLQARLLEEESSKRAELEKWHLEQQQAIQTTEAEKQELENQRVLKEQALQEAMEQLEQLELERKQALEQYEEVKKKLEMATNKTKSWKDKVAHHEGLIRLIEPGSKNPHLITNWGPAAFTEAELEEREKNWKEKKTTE
Chain of UniProt P10515 (P10515 whole entry): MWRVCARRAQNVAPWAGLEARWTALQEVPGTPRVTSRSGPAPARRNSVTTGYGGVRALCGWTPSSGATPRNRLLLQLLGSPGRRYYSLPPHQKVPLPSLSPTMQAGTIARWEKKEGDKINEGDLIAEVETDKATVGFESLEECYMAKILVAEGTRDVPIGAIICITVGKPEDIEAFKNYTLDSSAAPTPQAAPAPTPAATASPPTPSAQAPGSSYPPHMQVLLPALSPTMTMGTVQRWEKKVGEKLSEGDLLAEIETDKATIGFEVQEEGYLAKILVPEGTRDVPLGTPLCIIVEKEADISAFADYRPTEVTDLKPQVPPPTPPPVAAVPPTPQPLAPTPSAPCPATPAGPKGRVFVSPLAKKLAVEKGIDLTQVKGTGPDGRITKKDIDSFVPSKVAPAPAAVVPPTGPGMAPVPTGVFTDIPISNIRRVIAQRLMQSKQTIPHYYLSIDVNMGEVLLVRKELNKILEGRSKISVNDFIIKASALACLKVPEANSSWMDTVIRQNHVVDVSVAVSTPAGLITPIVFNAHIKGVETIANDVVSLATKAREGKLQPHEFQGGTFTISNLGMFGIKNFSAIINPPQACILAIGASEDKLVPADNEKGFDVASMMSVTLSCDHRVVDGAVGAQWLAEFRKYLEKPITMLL
Chain of UniProt Q9BV73 (Q9BV73 whole entry): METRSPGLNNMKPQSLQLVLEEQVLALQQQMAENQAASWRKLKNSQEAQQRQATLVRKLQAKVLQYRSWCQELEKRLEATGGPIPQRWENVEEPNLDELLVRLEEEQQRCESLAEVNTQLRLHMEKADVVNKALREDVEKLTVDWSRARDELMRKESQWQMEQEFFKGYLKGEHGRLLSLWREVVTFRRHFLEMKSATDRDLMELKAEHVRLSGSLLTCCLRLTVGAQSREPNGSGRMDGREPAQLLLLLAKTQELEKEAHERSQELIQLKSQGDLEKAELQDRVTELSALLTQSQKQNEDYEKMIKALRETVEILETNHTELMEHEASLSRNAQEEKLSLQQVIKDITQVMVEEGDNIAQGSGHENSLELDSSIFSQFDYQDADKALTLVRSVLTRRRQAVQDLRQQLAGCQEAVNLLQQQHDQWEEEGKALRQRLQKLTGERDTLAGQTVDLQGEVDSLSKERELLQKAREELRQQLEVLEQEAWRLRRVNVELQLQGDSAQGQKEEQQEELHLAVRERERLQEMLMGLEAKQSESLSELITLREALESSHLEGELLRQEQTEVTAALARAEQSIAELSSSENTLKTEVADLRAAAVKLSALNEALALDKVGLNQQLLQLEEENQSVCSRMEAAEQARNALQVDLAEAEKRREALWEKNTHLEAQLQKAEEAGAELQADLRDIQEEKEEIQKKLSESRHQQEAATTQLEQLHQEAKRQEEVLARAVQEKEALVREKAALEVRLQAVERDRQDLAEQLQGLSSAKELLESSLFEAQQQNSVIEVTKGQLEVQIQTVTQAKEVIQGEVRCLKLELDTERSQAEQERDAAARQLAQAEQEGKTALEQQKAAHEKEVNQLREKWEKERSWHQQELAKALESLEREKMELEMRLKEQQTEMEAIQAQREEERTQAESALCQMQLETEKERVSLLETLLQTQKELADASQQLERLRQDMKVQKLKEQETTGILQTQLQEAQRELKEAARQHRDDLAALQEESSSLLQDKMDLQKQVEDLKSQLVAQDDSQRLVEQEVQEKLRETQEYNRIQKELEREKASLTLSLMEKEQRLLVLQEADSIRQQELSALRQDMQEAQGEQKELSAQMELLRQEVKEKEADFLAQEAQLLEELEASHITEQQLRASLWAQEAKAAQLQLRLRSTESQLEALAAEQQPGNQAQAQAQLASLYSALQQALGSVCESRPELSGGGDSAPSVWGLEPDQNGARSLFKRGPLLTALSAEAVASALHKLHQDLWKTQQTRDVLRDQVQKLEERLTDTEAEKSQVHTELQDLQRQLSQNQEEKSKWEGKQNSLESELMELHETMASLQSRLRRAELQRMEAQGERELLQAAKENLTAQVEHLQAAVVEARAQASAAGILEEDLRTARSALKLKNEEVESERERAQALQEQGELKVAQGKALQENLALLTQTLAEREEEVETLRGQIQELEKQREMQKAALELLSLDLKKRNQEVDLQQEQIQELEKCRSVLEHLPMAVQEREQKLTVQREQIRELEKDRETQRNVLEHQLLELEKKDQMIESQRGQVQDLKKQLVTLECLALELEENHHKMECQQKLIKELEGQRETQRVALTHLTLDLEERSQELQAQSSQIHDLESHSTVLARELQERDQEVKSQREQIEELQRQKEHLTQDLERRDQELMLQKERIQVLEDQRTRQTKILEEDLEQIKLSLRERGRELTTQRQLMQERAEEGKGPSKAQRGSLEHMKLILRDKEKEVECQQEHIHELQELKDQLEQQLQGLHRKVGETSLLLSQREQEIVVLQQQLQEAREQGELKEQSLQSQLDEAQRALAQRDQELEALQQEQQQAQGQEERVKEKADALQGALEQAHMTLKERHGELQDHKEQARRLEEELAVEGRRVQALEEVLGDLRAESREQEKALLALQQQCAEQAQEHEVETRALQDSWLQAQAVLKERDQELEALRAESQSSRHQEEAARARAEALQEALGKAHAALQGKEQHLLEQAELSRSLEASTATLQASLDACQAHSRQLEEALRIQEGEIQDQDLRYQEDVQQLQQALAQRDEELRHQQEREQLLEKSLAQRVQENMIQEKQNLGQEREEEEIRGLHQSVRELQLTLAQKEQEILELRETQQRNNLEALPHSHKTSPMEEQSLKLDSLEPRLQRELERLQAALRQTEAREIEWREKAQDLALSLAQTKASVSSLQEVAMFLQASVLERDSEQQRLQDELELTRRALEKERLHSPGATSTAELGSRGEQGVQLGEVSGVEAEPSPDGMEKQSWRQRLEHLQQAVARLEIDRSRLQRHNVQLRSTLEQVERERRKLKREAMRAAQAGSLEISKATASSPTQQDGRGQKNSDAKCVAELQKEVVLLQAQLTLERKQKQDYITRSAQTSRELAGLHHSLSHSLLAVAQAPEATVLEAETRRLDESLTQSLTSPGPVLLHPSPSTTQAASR
Chain of UniProt P22061 (P22061 whole entry): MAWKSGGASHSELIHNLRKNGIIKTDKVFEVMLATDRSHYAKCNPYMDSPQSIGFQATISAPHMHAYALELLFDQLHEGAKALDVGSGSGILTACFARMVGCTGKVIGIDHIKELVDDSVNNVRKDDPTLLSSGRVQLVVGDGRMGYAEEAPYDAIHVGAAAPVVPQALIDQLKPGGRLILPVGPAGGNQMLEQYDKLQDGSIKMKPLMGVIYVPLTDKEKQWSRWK
Chain of UniProt O76070 (O76070 whole entry): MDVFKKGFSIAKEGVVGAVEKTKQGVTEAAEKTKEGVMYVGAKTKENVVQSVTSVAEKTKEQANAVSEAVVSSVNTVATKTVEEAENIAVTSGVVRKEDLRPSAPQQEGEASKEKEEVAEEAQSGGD
Chain of UniProt Q9GZN8 (Q9GZN8 whole entry): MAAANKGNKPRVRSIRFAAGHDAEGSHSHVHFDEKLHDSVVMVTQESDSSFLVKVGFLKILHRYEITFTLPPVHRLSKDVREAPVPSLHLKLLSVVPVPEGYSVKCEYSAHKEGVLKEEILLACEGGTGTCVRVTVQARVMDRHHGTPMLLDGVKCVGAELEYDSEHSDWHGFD

| Target | thermal stability z-score (lipoamide; [1]) | thermal stability z-score (lipoamide; arsenate co-treatment: none) | thermal stability z-score (potassium arsenate) |
| --- | --- | --- | --- |
| CEP250 (UniProt Q9BV73) | 0.0869 | 0.182 | 0.0828 |
| PYM1 (UniProt Q9BRP8) | 0.618 | -0.287 | -0.578 |
| MARS (UniProt P56192) | -1.37 | -0.604 | 0.22 |
| SNX16 (UniProt P57768) | 1.01 | -0.515 | -0.741 |
| NUDT15 (UniProt Q9NV35) | 0.686 | 0.121 | -0.373 |
| DLAT (UniProt P10515) | -2.72 | -0.583 | -11.2 |
| LRR1 (UniProt Q96L50) | 0.148 | 0.192 | -0.256 |
| CST3 (UniProt P01034) | -0.744 | -0.0182 | 0.472 |
| LZIC (UniProt Q8WZA0) | 0.558 | 0.781 | 0.906 |
| PLA2G15 (UniProt Q8NCC3) | -0.718 | -0.487 | 0.38 |
| SIDT2 (UniProt Q8NBJ9) | -1.33 | -1.46 | -1.91 |
| SWAP70 (UniProt Q9UH65) | -0.295 | 0.217 | 0.3 |
| RBM22 (UniProt Q9NW64) | -0.0944 | 0.0307 | -1.96 |
| ADD1 (UniProt P35611) | -0.281 | -0.308 | -0.913 |
| POLR2L (UniProt P62875) | 1.27 | 0.782 | 0.335 |
| SNCG (UniProt O76070) | 1.49 | 0.999 | 0.0455 |
| DAP3 (UniProt P51398) | -0.597 | -0.135 | 0.132 |
| UNC93B1 (UniProt Q9H1C4) | 0.172 | -0.000713 | 0.487 |
| TEAD1 (UniProt P28347) | 0.133 | 0.196 | -0.00363 |
| RPS12 (UniProt P25398) | 0.613 | 0.884 | -0.949 |
| HMG20B (UniProt Q9P0W2) | -0.211 | -0.0202 | 0.0621 |
| C20ORF27 (UniProt Q9GZN8) | 0.247 | 0.189 | -0.583 |
| RAD51AP1 (UniProt Q96B01) | 0.0622 | -0.213 | -0.76 |
| INPP5F (UniProt Q9Y2H2) | -0.128 | -0.261 | 0.13 |
| CMC1 (UniProt Q7Z7K0) | 0.741 | -0.328 | 0.65 |
| PCMT1 (UniProt P22061) | 0.993 | 0.908 | 0.245 |
| AP2S1 (UniProt P53680) | -0.111 | -0.0691 | 0.767 |
| DMXL2 (UniProt Q8TDJ6) | -0.191 | -0.105 | 0.00642 |
| CCDC59 (UniProt Q9P031) | -0.52 | -0.816 | 1.06 |
| LPCAT4 (UniProt Q643R3) | -0.953 | 0.367 | 0.519 |
